Legend:
[1] = system: anesthetized rats; test: Renal sodium excretion during and after iv peptide infusion in anesthetized rats; format: in vivo, rat
Method: Rats were not fasted prior to clearance experiments and ranged in weight from 250-340 g at the time of study. Anesthesia was induced with an intraperitoneal injection of pentobarbital sodium (55 mg/kg BW) and maintained at a surgical plane by intermittent intravenous supplementation. Core temperature was maintained at 37° C. by a servo-controlled, heated operating table. Animals breathed spontaneously through a PE240 cannula inserted into the trachea. A jugular vein was catheterized with PE50 cannula tubing for intravenous infusion of isotonic saline containing FITC-labeled inulin (0.4% W/V, Sigma, St Louis Mo.) and two PE10 cannulae, one for supplemental anesthetic and the other for peptide infusions (described below in the experimental protocol section). The ureters were exposed through a midline ventral incision and cannulated with PE10 tubing about one cm from each kidney. Urine was collected over 20 min periods and the volume estimated by weight. A femoral artery was cannulated with PE50 tubing for continuous measurement of arterial blood pressure and intermittent blood samples (50 μl), taken at the mid point of each urine collection.
(§1) All rats received a continuous intravenous infusion (10 μl/min/100 g BW) of isotonic saline containing FITC-labeled inulin for measurement of inulin clearance. Uncongugated FITC label and small inulin polymers were removed from the inulin solution by overnight dialysis against isotonic saline (SpectraPor 6 dialysis membrane, 1 kDa cutoff-limit, Spectrum Laboratories, Rancho Domingo, Calif.). Undissolved particulates were removed from the solution by filtration through a […] filter before each experiment (Steriflip, Millipore Inc. Billerica, Mass.). At least one hr was allowed for equilibration before the start of urine collections, at which point plasma inulin concentration had stabilized at an average value of 30±3 μg/ml.
(§2) Arterial blood pressure was measured with a pressure transducer connected to a cardiovascular analyzer (Model 50110, Stoelting Instruments Wood Dale, Ill.). Left renal blood flow was measured in some rats with a flow probe positioned on the left renal artery and connected to a blood flow monitor (model 1 PRB probe and model T420 monitor, Transonic Systems Inc. Ithaca N.Y.). Arterial pressure, heart rate, and renal blood flow were digitized with an A/D converter (Keithley instruments, Cleveland, Ohio Model KUSB 3100) for display and storage on a Windows-based personal computer using open layers data acquisition software (Dtx_Ez, Data Translation Inc, Marlboro, Mass.). Sodium and potassium concentrations in plasma and urine were measured by flame photometry (Model 943, Instrumentation Laboratory Co., Lexington Mass.). Glomerular filtration rate (GFR) was measured as the renal clearance rate of FITC-labeled inulin
(§3) After post-surgical equilibration (−60 min) and three 20 min control clearance periods, huUgnA or B was infused into the jugular vein at 10 μl/min over a 60 min period, followed by a return to isotonic saline for the remainder of the experiment. The infused doses of huUgnA were 12, 25, 50, 100, or 200 nmol/kg BW in a total of 38 rats; huUgnB doses were 9, 18, 35, 70, and 140 nmol/kg BW in 35 rats. A UgnA mimetic, E. coli STh (ST-core), was infused into a third group of 32 rats at doses of 17, 32, 66, 133, and 266 nmol/kg. Renal excretory responses to these infusions were slow to develop and long lasting, so clearance periods were continued for 2-3 hr after the termination of the peptide infusion. This protracted time course limited protocols to one dose of one peptide in each rat. A control group of 10 rats received isotonic saline at 10 μl/min in place of the peptide infusion, but was otherwise treated in the same way as the experimental groups.
The effects of combined infusions of huUgnA and B were investigated in two groups of rats that received 35 nmol/kg of huUgnB together with either 25 nmol/kg (n=5) or 100 nmol/kg of huUgnA (n=5). […]

[2] = system: anesthetized rats; test: Glomerular filtration rate (FITC-inulin clearance) during and after iv peptide infusion; format: in vivo, rat
Method: as §1, §2, §3
This assay was based on the method described by Lorenz and Gruenstein. Urine samples were diluted with hepes-buffered saline (3, 5, 10, or 20 fold, based on urine flow) to neutralize the pH and bring the intensity of FITC emissions into detector range. Small volumes (3-5 μl) of diluted urine and undiluted plasma samples were drawn into constant bore capillary tubes (10 μl Microcap tubes, Drummond Scientific Company, Broomall Pa.) and sealed at each end with water-saturated mineral oil. FITC emission intensity was measured by imaging each sample at 10× magnification with an epifluorescence microscope (Axiovert S100TV, Carl Zeiss Inc. Thornwood, N.Y.) fitted with a CCD camera (Orca II, Hamamatsu Inc. Bridgewater, N.J.) controlled by Metamorph imaging software (Molecular Devices, Sunnyvale, Calif.). Fluorescence intensities were measured as mean pixel intensity obtained from a consistent central region of each sample during a 25 or 500 msec exposure for urine and plasma, respectively. Background intensities were measured in the same way using bladder urine and tail vein plasma collected from the same rat before the beginning of inulin infusion. Inulin concentrations in plasma and urine samples were calculated from a standard curve prepared from the infusion solution used in each experiment. […]

[3] = huUgnA 25 nmol, Post-infuse, *** p<0.005 vs time control

CC(C)C[C@H](NC(=O)[C@@H]1CSSC[C@@H]2NC(=O)[C@H](CC(C)C)NC(=O)[C@H](CCC(=O)O)NC(=O)[C@@H](NC(=O)[C@H](CC(=O)O)NC(=O)[C@H](CC(=O)O)NC(=O)[C@@H](N)CC(N)=O)CSSC[C@H](NC(=O)[C@H](C)NC(=O)[C@H](C(C)C)NC(=O)[C@H](CC(N)=O)NC(=O)[C@H](C(C)C)NC2=O)C(=O)N[C@@H]([C@@H](C)O)C(=O)NCC(=O)N1)C(=O)O (single isomer, unassigned) [huUgnA, Asn Asp Asp Cys Glu Leu Cys Val Asn Val Ala Cys Thr Gly Cys Leu, reference compound]
single effective dose, cumulative sodium excretion ([1]; FIG. 6B, lower or higher doses not different from control): 25 nmol/kg
FENa (fractional sodium excretion) ([1]; huUgnA 12 nmol, Infuse): 0.10 ± 0.02 % of filtered
UNaV (sodium excretion) ([1]; huUgnA 12 nmol, Infusion): 118.1 ± 25 nEq/min/g KW
FENa (fractional sodium excretion) ([1]; huUgnA 12 nmol, Post-infuse): 0.17 ± 0.02 % of filtered
UNaV (sodium excretion) ([1]; huUgnA 12 nmol, Post-infuse): 222 ± 33 nEq/min/g KW
FENa (fractional sodium excretion) ([1]; huUgnA 12 nmol, Pre-infuse): 0.08 ± 0.02 % of filtered
UNaV (sodium excretion) ([1]; huUgnA 12 nmol, Pre-infuse): 85 ± 20 nEq/min/g KW
FENa (fractional sodium excretion) ([1]; huUgnA 25 nmol, Infuse, * p<0.05 vs time control): 0.27 ± 0.08* % of filtered
UNaV (sodium excretion) ([1]; huUgnA 25 nmol, Infusion, * p<0.05 vs time control): 291.7 ± 77* nEq/min/g KW
FENa (fractional sodium excretion) [1, 3]: 0.68 ± 0.08*** % of filtered
UNaV (sodium excretion) [1, 3]: 664 ± 75*** nEq/min/g KW
FENa (fractional sodium excretion) ([1]; huUgnA 25 nmol, Pre-infuse): 0.09 ± 0.01 % of filtered
UNaV (sodium excretion) ([1]; huUgnA 25 nmol, Pre-infuse): 93 ± 7 nEq/min/g KW
FENa (fractional sodium excretion) ([1]; huUgnA 50 nmol, Infuse): 0.10 ± 0.01 % of filtered
UNaV (sodium excretion) ([1]; huUgnA 50 nmol, Infusion): 117.5 ± 22 nEq/min/g KW
FENa (fractional sodium excretion) ([1]; huUgnA 50 nmol, Post-infuse): 0.28 ± 0.05 % of filtered
UNaV (sodium excretion) ([1]; huUgnA 50 nmol, Post-infuse, * p<0.05 vs time control): 342 ± 63* nEq/min/g KW
FENa (fractional sodium excretion) ([1]; huUgnA 50 nmol, Pre-infuse): 0.06 ± 0.01 % of filtered
UNaV (sodium excretion) ([1]; huUgnA 50 nmol, Pre-infuse): 73 ± 10 nEq/min/g KW
FENa (fractional sodium excretion) ([1]; huUgnA 100 nmol, Infuse): 0.12 ± 0.03 % of filtered
UNaV (sodium excretion) ([1]; huUgnA 100 nmol, Infusion): 130.8 ± 32 nEq/min/g KW
FENa (fractional sodium excretion) ([1]; huUgnA 100 nmol, Post-infuse): 0.27 ± 0.06 % of filtered
UNaV (sodium excretion) ([1]; huUgnA 100 nmol, Post-infuse): 328 ± 80 nEq/min/g KW
FENa (fractional sodium excretion) ([1]; huUgnA 100 nmol, Pre-infuse): 0.06 ± 0.01 % of filtered
UNaV (sodium excretion) ([1]; huUgnA 100 nmol, Pre-infuse): 66 ± 9 nEq/min/g KW
FENa (fractional sodium excretion) ([1]; huUgnA 200 nmol, Infuse): 0.11 ± 0.02 % of filtered
UNaV (sodium excretion) ([1]; huUgnA 200 nmol, Infusion): 120.6 ± 18 nEq/min/g KW
FENa (fractional sodium excretion) ([1]; huUgnA 200 nmol, Post-infuse): 0.29 ± 0.03 % of filtered
UNaV (sodium excretion) ([1]; huUgnA 200 nmol, Post-infuse): 342 ± 51 nEq/min/g KW
FENa (fractional sodium excretion) ([1]; huUgnA 200 nmol, Pre-infuse): 0.06 ± 0.01 % of filtered
UNaV (sodium excretion) ([1]; huUgnA 200 nmol, Pre-infuse): 67 ± 1 nEq/min/g KW
UNaV time course, ANOVA vs control ([1]; infusion period (p<0.05) and post infusion period (p<0.001)): significant increase
shape of natriuretic dose-response relationship ([1]; rat, in vivo): bell-shaped
GFR (glomerular filtration rate) ([2]; huUgnA 12 nmol, Infusion): 869 ± 64 μl/min/g KW
GFR (glomerular filtration rate) ([2]; huUgnA 12 nmol, Post-infuse): 923 ± 66 μl/min/g KW
GFR (glomerular filtration rate) ([2]; huUgnA 12 nmol, Pre-infuse): 895 ± 51 μl/min/g KW
GFR (glomerular filtration rate) ([2]; huUgnA 25 nmol, Infusion): 886 ± 66 μl/min/g KW
GFR (glomerular filtration rate) ([2]; huUgnA 25 nmol, Post-infuse): 823 ± 49 μl/min/g KW
GFR (glomerular filtration rate) ([2]; huUgnA 25 nmol, Pre-infuse): 820 ± 40 μl/min/g KW
GFR (glomerular filtration rate) ([2]; huUgnA 50 nmol, Infusion): 817 ± 53 μl/min/g KW
GFR (glomerular filtration rate) ([2]; huUgnA 50 nmol, Post-infuse): 869 ± 49 μl/min/g KW
GFR (glomerular filtration rate) ([2]; huUgnA 50 nmol, Pre-infuse): 858 ± 52 μl/min/g KW
GFR (glomerular filtration rate) ([2]; huUgnA 100 nmol, Infusion): 858 ± 55 μl/min/g KW
GFR (glomerular filtration rate) ([2]; huUgnA 100 nmol, Post-infuse): 906 ± 38 μl/min/g KW
GFR (glomerular filtration rate) ([2]; huUgnA 100 nmol, Pre-infuse): 807 ± 62 μl/min/g KW
GFR (glomerular filtration rate) ([2]; huUgnA 200 nmol, Infusion): 827 ± 61 μl/min/g KW
GFR (glomerular filtration rate) ([2]; huUgnA 200 nmol, Post-infuse): 849 ± 24 μl/min/g KW
GFR (glomerular filtration rate) ([2]; huUgnA 200 nmol, Pre-infuse): 857 ± 43 μl/min/g KW
